Entries after “also recorded” stand apart in the source; their conditions may differ.
Experiments:
[1] = Study 4: chronic feeding trial, 15 weeks; format: in vivo, Sprague Dawley Rats; conditions: rats; for bodyweight (prevention of weight gain, maintaining a lower weight): in food, 25 g/kg/d, 15 weeks, compared to standard diet, BHB-S, S-MCT
Excerpt: FIG. 3 depicts results of a chronic feeding trial in rats. SD: standard rodent chow (fed ad libitum); LKE: low-dose R,S 1,3-butanediol diacetoacetate (approx. 5 g/kg/day in food); HKE: high-dose R,S 1,3-butanediol diacetoacetate (approx. 25 g/kg/day in food); BHB-S: beta-hydroxybutyrate salt (approx. 25 g/kg/day in food); S-MCT: 1:1 beta-hydroxybutyrate salt: medium chain triglyceride oil (approx. 25 g/kg/day).

[2] = Study 1: chronic ad libitum feeding trial, 28 days; format: in vivo; conditions: VM/Dk mice, 10-20% by weight in standard chow; for bodyweight (weight loss and its maintenance): males and females, compared to SD or KD chow ad libitum
Protocol: FIGS. 1A-1H depict results of a chronic ad libitum feeding trial of male and female mice (Standard Diet Male (n=7)=SD-M; Ketogenic Diet Male (n=7)=KD-M; R/S 1,3 Butanediol Acetoacetate Diester (n=4)=KE-M; Standard Diet Female (n=7)=SD-F; Ketogenic Diet Female (n=6)=KD-F; R/S 1,3 Butanediol Acetoacetate Diester Female (n=4)=KE-F).
R,S 1,3-butanediol diacetoacetate (KE; 10-20% by weight mixed into standard chow) was administered to VM/Dk mice at for both males and females for 28 days. Standard rodent chow (SD) and ketogenic diet chow (KD) were administered to other VM/Dk mice ad libitum for comparison.

[3] = Study 5: weight loss to 20% with ketogenic agents vs caloric restriction, then return to ad libitum standard diet (weight loss maintenance); format: in vivo; conditions: C57BL/6J; for food efficiency during weight loss maintenance (bodyweight regain proportional to calories consumed, FIG. 6): after cessation of agent, ad libitum SD, compared to caloric restriction and butanediol; for weight loss as ratio to kcal of ketogenic agent per total daily intake (FIGS. 4A-4B): compared to butanediol, BHB+MCT, BHB; for weight loss as a ratio to caloric intake/day (FIG. 5B): compared to BHB, BHB+MCT and CR groups
Excerpt: FIGS. 4A-4B depict results of weight loss induced by various ketogenic agents against regular SD caloric restriction, illustrating the effectiveness of various ketogenic agents for inducing weight loss. Treatments: Beta-Hydroxybutyrate (BHB); Beta-Hydroxybutyrate+Medium Chain Triglycerides (BHB+MCT); Butanediol (BD); R,S 1,3-Butanediol Acetoacetate Diester (KE).
FIGS. 5A-5B depict treatment timeline of weight loss study utilizing various ketogenic agents against SD caloric restriction, as well as evaluation of weight loss potency of each ketogenic agent. Treatments: Standard Diet ad-Libitum (SD-AL); Standard Diet Caloric Restriction (CR); Beta-Hydroxybutyrate (BHB); Beta-Hydroxybutyrate+Medium Chain Triglycerides (BHB+MCT); Butanediol (BD); R,S 1,3-Butanediol Acetoacetate Diester (KE). […] These reductions in bodyweight were at lower percentages of the ketogenic agent within the food. Additionally, KE animals reach target weight loss at much LOWER % of ketogenic agent integrated into the diet.
FIG. 6 depicts food efficiency during weight loss maintenance by calculating bodyweight regain proportional to calories consumed. Treatments: Standard Diet ad-Libitum (SD-AL); Standard Diet Caloric Restriction (CR); Beta-Hydroxybutyrate (BHB); Beta-Hydroxybutyrate+Medium Chain Triglycerides (BHB+MCT); Butanediol (BD); R,S 1,3-Butanediol Acetoacetate Diester (KE).
C57BL/6J animals were obtained. Prior to experimental initiation, animals were randomly assigned to one (1) of five (5) groups: Caloric Restriction with standard diet (SD), Beta-hydroxybutyrate with SD (BHB), BHB+Medium Chain Triglycerides with SD (BHB+MCT), 1,3-Butanediol with SD (BD), and R,S 1,3 Butanediol Acetoacetate Diester with SD (KE). All animals initiated weight loss by either reducing the amount of calories consumed (CR group) or adding various % of ketogenic agents to induce weight loss. There was no difference in bodyweight across groups at baseline. All animals underwent weight loss until 20% weight loss was achieved. Upon reaching 20% weight loss, animals were switched back onto ad-libitum SD.
Calories intake, bodyweight, and kcal of ketogenic agent in diet were recorded daily. In order to calculate the effectiveness of each agent to induce weight loss, weight loss as both grams and % weight loss, was compared as a ratio to the amount of kcal from each ketogenic agent compared to total kcals consumed a day.

[4] = Study 3: acute oral gavage trial, 7 days; format: in vivo, Sprague Dawley Rats; conditions: rats
Protocol: FIGS. 2A-2B depict results of an acute gavage trial in rats.
R,S 1,3 butanediol diacetoacetate (KE) was administered to Sprague Dawley Rats by oral gavage (at 5 mL/kg, which may translate to about 300-700 mg/kg for a human). Water, BHB-salt, or BHB-salt+MCT mixture was administered to other Sprague Dawley Rats for comparison. Animals were provided ad libitum access to standard rodent chow.

[5] = agent in standard diet until 20% weight loss

Row | Compound | Approximate caloric intake compared to controls following adaptation to diet (weeks 13-15) ([1]; approx. 25 g/kg/day in food) [% kcal] | bodyweight (prevention of weight gain, maintaining a lower weight) [1] | bodyweight (prevention of weight gain, maintaining a lower weight) ([1]; listed as R,S 1,3 butanediol diacetoacetate) | Approximate caloric intake compared to controls following adaptation to diet (weeks 13-15) ([1]; low dose, approx. 5 g/kg/day in food) | white adipose tissue ([2]; compared to SD or KD) | bodyweight (weight loss and its maintenance) [2] | bodyweight (weight loss and its maintenance) ([2]; listed as ketone diester) | food efficiency during weight loss maintenance (bodyweight regain proportional to calories consumed, FIG. 6) [3] | food efficiency during weight loss maintenance (bodyweight regain proportional to calories consumed, FIG. 6) ([3]; listed as R,S 1,3-butanediol diacetoacetate) | speed of bodyweight reduction and % of agent in the diet needed (FIG. 5A) [3, 5] | weight loss as ratio to kcal of ketogenic agent per total daily intake (FIGS. 4A-4B) [3, 5] | weight loss as ratio to kcal of ketogenic agent per total daily intake (FIGS. 4A-4B) ([3]; agent in standard diet until 20% weight loss, listed as R,S 1,3 Butanediol Acetoacetate diester) | weight loss as a ratio to caloric intake/day (FIG. 5B) [3] | bodyweight (prevention of weight gain, maintaining a lower weight) ([4]; gavage 5 g/kg once daily (5 mL/kg), ad libitum standard chow, compared to water, BHB-S, S-MCT, p<0.01) | calorie intake (self-restriction) ([4]; gavage once daily, ad libitum access to standard rodent chow) | food efficiency during weight loss maintenance (bodyweight regain proportional to calories consumed, FIG. 6) ([3]; listed as BHB)
1 | CC(=O)CC(=O)OCCC(C)OC(=O)CC(C)=O (stereo not shown) [KE, R,S 1,3-butanediol diacetoacetate] | ~−7 | more effective than BHB-S or S-MCT at preventing weight gain and maintaining a lower weight | significantly lower bodyweight | ~+10% kcal | induce reductions in white adipose tissue | induced and maintained long-term weight loss | lost significantly more bodyweight | more effective at inducing inefficiencies in kcal consumed; also recorded: had lingering effects on food efficiency and weight loss maintenance | help contribute to maintenance of weight loss after cessation of weight loss intervention by reducing food efficiency | induced a quicker reduction in bodyweight; also recorded: induces more rapid weight loss | superior per kcal used at inducing weight loss | superior weight loss agent per total average daily intake | significantly more potent at inducing weight loss when divided by total caloric intake | more effective than BHB-S, S-MCT, or Control at preventing weight gain and maintaining a lower weight; also recorded: significantly lower bodyweight | self-restricted calories | –
2 | beta-hydroxybutyrate salt [BHB-S, reference compound] | ~−25 | – | – | – | – | – | – | help contribute to maintenance of weight loss after cessation of weight loss intervention by reducing food efficiency | – | – | – | – | could be explained by caloric restriction alone | – | – | more effective at inducing inefficiencies in kcal consumed; also recorded: had lingering effects on food efficiency and weight loss maintenance; also recorded: helped maintain weight loss post cessation of agent administration

From US12310938B2, “Compositions and methods for weight loss maintenance” (priority 2017, dated 2025)
